Where two headings read alike, the source gives them in different places. A value given as a limit tells only on which side of the number the result lay.

For one data set, the target named is PI3Kγ (Homo sapiens, UniProt P48736). Nature of the data set: PI3K Inhibition Assay (33P-ATP, PI(4,5)P2 substrate), PI3Kγ isoform. It counts as biochemical. As to conditions: 2 nM final enzyme, 3 μM ATP, 30 μM PI(4,5)P2; competitive tight binding Ki fit. The method, then:
(§1) Using a Biomek FX from Beckman Coulter, 1.5 μL of each of ten 2.5-fold serial dilutions of a compound of the invention in 100% DMSO was added to an individual well (hereafter, “test well”) in a 96 well polystyrene plate [Corning, Costar Item No. 3697]. One test well also contained 1.5 μL of DMSO with no compound. […] Using a Titertek Multidrop, 50 μL of Reaction Mix [100 mM HEPES pH 7.5, 50 mM NaCl, 10 mM DTT, 0.2 mg/mL BSA, 60 μM phosphatidylinositol(4,5)bisphosphate diCl6 (PI(4,5)P2; Avanti Polar Lipids, Cat. No. 840046P) and PI3K isoform of interest (see Table 3 for isoform concentrations)] was added to each well. To initiate the reaction, 50 μL of ATP Mix [20 mM MgCl2, 6 μM ATP (100 μCi/μmole ^33P-ATP)] was added each well, followed by incubating the wells for 30 min. at 25° C. Final concentrations in each well were 50 mM HEPES 7.5, 10 mM MgCl2, 25 mM NaCl, 5 mM DTT, 0.1 mg/mL BSA, 30 μM PI(4,5)P2, 3 μM ATP, and the PI3K isoform of interest (see Table 3). Final compound concentrations in each well ranged from 10 μM to 1 nM.
(§2) After incubation, the reactions in each well were quenched by addition of 50 μL of stop solution [30% TCA/Water, 10 mM ATP]. Each quenched reaction mixture was then transferred to a 96 well glass fiber filter plate [Corning, Costar Item No. 3511]. The plate was vacuum-filtered and washed three times with 150 μL of 5% TCA/water in a modified Bio-Tek Instruments ELX-405 Auto Plate Washer. 50 μL of scintillation fluid was added to each well and the plate read on a Perkin-Elmer TopCount™ NXT liquid scintillation counter to obtain ^33P-counts representing inhibition values.
(§3) The value for the background well was subtracted from the value obtained for each test well and the data were fit to the competitive tight binding Ki equation described by Morrison and Stone, Comments Mol. Cell. Biophys. 2: 347-368, 1985.

In the next data set the target is PI3Kα (Homo sapiens, UniProt P42336). Nature of the data set: PI3K Inhibition Assay (33P-ATP, PI(4,5)P2 substrate), PI3Kα isoform. It counts as biochemical. The note with it: 2 nM final enzyme, 3 μM ATP, 30 μM PI(4,5)P2; competitive tight binding Ki fit. On the procedure: as §1, §2, §3
PI3Kα, sequence (P42336 whole entry, species assumed, canonical isoform): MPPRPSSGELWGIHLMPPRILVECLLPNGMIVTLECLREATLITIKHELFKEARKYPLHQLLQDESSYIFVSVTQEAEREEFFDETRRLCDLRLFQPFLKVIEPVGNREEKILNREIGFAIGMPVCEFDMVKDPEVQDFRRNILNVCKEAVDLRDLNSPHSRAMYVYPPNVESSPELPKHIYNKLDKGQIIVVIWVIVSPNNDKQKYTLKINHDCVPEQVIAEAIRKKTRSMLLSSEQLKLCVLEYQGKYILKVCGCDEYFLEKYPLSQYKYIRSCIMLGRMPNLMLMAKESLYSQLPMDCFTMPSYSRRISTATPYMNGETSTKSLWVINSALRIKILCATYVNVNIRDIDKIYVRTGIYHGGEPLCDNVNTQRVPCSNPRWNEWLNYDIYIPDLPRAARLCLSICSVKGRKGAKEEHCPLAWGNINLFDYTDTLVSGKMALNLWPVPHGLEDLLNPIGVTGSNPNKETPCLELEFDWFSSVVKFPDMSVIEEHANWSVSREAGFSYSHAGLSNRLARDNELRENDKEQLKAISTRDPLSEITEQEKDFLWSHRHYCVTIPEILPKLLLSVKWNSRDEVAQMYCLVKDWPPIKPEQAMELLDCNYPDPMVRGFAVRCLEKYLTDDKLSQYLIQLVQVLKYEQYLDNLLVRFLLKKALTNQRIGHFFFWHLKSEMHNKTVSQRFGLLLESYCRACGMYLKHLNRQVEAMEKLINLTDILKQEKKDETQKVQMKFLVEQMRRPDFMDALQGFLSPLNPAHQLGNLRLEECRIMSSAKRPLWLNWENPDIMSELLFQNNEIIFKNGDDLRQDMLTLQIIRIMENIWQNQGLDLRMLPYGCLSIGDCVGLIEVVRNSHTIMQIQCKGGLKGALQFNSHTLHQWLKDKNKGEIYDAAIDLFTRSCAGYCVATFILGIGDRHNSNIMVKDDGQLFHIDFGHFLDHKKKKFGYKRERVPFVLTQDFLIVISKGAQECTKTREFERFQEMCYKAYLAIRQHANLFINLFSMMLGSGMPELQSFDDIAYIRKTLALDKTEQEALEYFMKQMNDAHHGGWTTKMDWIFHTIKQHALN
PI3Kα, sequence (P27986 whole entry partner, species assumed, canonical isoform): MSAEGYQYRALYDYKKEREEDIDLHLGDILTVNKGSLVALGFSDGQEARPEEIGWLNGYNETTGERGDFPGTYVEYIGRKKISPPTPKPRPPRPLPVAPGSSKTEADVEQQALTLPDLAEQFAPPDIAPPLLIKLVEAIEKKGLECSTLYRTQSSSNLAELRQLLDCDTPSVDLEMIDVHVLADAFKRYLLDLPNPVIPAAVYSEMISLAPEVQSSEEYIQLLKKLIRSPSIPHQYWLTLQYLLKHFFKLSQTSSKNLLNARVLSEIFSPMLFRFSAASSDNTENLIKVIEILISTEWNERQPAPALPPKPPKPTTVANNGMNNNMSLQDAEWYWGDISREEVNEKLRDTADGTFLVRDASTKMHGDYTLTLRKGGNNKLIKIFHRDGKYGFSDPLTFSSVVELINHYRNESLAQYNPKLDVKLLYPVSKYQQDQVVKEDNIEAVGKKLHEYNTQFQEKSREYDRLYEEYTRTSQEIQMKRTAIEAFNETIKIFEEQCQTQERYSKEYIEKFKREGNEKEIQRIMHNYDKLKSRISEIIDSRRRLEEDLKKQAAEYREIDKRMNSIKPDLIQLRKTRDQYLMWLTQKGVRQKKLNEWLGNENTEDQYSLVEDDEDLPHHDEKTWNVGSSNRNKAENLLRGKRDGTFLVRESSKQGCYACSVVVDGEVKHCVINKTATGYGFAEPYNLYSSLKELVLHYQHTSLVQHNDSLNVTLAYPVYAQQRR
Data set [1] in a line: Evaluation of Brain/Plasma Concentrations. As to conditions: Sprague-Dawley rats; for concentration at 2 h: 10 mg/kg oral intragastric in 0.5% MC, two hours after administration; for Kp at 2 h: 10 mg/kg oral, two hours, average brain/plasma ratio based on data obtained for each animal. It counts as in vivo. The method, then: Selected compounds of the invention were evaluated for their ability to cross the blood-brain barrier. Accordingly, a compound of the invention was administered to Sprague-Dawley rats [10 mg/kg as a 1 mg/mL 0.5% MC solution] via oral intragastric delivery. Two hours after compound administration, the rats were anaesthetized by intramuscular administration of a 2 mL/kg Ketamine/Rompun/Acepromazine cocktail and placed onto necropsy table. The abdominal cavity was then opened with a V-cut and 300 microliters of blood was drawn directly from left ventricle for plasma concentration analysis. The blood sample was stored on ice in a 1.5 mL Eppendorf tube (containing K2EDTA) and subsequently centrifuged for 2 minutes at 2000 rpm. After centrifugation, 110 microliters of plasma was transferred to a fresh tube and stored at −70° C. until analysis. The rat was perfused with cold saline (containing 50 IU of heparin) at 20 mL/min from an infusion pump through the left ventricle of the heart. Immediately after starting the perfusion, a small cut in the right atria was made so that heparinized saline would flow through the body. The perfusion was continued until the liver appeared pale in color (about 60 mL of cold saline). The brain was removed and placed on ice, blotted dry, weighed, placed in a tube, frozen with liquid nitrogen, and stored at −70° C. until further analysis was performed.
In order to determine compound concentration in the plasma, the blood sample was prepared by protein precipitation with addition of acetonitrile at a ratio of 1:4. After vortexing and centrifugation, the supernatant was analyzed by high performance liquid chromatography-tandem mass spectrometry in positive Atmospheric Pressure Chemical Ionization (APCI) ionization mode. The analysis was done using reverse-phase high performance liquid chromatography with a 5.0 μm Xterra C18 analytical column (2.1×50 mm). Mobile phase was consists of a mixture of 10 mM ammonium acetate and acetonitrile running in a 1.5 minutes linear gradient. Aliquots of the matrix were spiked with known concentrations of the compound of interest and an internal standard. Study samples were spiked with the internal standard alone. The calibration curve generally contains final concentrations in the control matrix of 1 to 5000 ng/mL. The calibration curve was analyzed and the instrument response (area counts for compound of interest/Area Counts for internal Standard) are used to generate a calibration curve. The instrument response for study samples were compared to the calibration curve and the concentration back-calculated from the curve.
In order to determine compound concentration in the brain, the brain sample was thawed to RT, and a 0.5 weight equivalent of water was added to the sample. The sample was then completely homogenized. Two to four volumes of acetonitrile were added to the brain homogenate, the homogenate mixed and the sample centrifuged to remove protein. Similar to the method used to obtain blood concentrations, an aliquot of the sample homogenate supernatant was injected onto an LC/MS/MS running a gradient suitable for detecting the compound of interest. The instrument response was compared to the instrument response from calibration samples of brain homogenate spiked with known concentrations of compound in order to determine the brain concentration.

In data set [2] the test system is experimental autoimmune encephalomyelitis (EAE). Nature of the data set: Experimental autoimmune encephalomyelitis (EAE) mouse model of multiple sclerosis. It counts as in vivo. The note with it: prophylactic administration, contrasted with animals administered vehicle alone. The text has this: See, for example, Keszthelyi et al., Neurology, 1996, 47:1053-1059.

Where [3] appears, read: based on a density of rat plasma of 1.0 g/mL, read-out: Plasma Conc.
The mark [4] stands for this setting: rat, brain, average of two or three animals, read-out: Brain Conc.

PI3Kγ, sequence (P48736 whole entry, species assumed, canonical isoform): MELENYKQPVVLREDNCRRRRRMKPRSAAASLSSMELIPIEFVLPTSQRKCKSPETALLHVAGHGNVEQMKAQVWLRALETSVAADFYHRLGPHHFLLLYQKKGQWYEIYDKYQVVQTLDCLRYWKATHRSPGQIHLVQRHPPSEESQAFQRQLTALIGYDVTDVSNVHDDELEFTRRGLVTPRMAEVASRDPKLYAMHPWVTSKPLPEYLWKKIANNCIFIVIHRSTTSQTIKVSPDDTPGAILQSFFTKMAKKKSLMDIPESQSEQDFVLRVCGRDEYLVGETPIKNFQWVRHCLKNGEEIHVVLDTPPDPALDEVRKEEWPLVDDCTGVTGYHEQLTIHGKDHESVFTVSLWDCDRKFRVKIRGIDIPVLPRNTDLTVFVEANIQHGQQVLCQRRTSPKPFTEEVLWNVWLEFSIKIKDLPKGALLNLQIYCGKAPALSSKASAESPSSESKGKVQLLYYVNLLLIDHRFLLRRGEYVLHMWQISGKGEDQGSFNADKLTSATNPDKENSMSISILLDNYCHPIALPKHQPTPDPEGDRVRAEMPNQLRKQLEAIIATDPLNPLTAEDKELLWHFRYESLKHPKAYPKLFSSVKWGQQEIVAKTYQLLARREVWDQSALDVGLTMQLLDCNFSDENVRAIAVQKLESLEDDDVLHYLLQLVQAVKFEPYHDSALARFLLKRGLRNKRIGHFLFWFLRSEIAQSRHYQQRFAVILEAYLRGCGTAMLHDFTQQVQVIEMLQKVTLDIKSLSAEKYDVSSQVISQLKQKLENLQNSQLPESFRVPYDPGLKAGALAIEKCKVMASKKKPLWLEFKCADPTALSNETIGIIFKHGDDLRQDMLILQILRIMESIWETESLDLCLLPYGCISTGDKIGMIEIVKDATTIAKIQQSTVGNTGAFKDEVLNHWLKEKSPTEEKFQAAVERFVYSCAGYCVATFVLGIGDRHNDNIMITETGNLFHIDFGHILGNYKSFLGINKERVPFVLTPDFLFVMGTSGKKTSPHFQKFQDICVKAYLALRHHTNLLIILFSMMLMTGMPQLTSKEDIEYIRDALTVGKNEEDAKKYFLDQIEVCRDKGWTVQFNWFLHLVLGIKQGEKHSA

Consider `CCCOCCNC(=O)Nc1nc2ccc(-c3cncc(C(F)(F)F)c3)nc2s1` [Compound 1, 1-(5-(5-(trifluoromethyl)pyridin-3-yl)thiazolo[5,4-b]pyridin-2-yl)-3-(2-propoxyethyl)urea], for which the inhibition constant Ki (in general, the equilibrium dissociation constant of an inhibitor or competing ligand from its target) at PI3Kγ was in the range of 10 to 100 nM; on PI3Kα it was 100 to 4000 nM. Besides, the concentration at 2 h was found to be 197 ng/mL in data set [1] (setting [3]) and 157 ng/g in data set [1] (setting [4]). Also, the Kp (usually the ratio of the level in a tissue or fluid to that in plasma or blood) at 2 h in data set [1] (rat) came out at 0.8.
As to `CCCOCCCNC(=O)Nc1nc2ccc(-c3cncc(C(F)(F)F)c3)nc2s1` [Compound 2], the results for the Ki on PI3Kγ and on PI3Kα were 10 to 100 nM and 100 to 4000 nM, respectively.
For `CC(C)OCCCNC(=O)Nc1nc2ccc(-c3cncc(C(F)(F)F)c3)cc2s1` [Compound 3, 1-(6-(5-(trifluoromethyl)pyridin-3-yl)benzo[d]thiazol-2-yl)-3-(3-isopropoxypropyl)urea], in that order: 10 to 100 nM and 100 to 4000 nM.
As to `COCCCNC(=O)Nc1nc2ccc(-c3cncc(C(F)(F)F)c3)nc2s1` [Compound 10], the values for the Ki at PI3Kγ and at PI3Kα were at most 10 nM and 10 to 100 nM, respectively. In addition, the concentration at 2 h in data set [1] (setting [3]) amounted to 985 ng/mL; in data set [1] (setting [4]), 662 ng/g. Besides, the concentration ratio (Kp) at 2 h in data set [1] (rat) is 0.7. The “Effect on disease in EAE” value in data set [2] is “disease suppression”.
Take `CCOCCCNC(=O)Nc1nc2ccc(-c3cncc(C(F)(F)F)c3)nc2s1` [Compound 11]: the Ki is at most 10 nM on PI3Kγ and 100 to 4000 nM on PI3Kα. The results for the concentration at 2 h in data set [1] (setting [3]) and in data set [1] (setting [4]) were 210 ng/mL and 55 ng/g, respectively. Further, the Kp at 2 h in data set [1] (rat) was 0.3.
As for `CCNC(=O)Nc1nc2ccc(-c3cncc(C(F)(F)F)c3)nc2s1` [Compound 13], the Ki is at most 10 nM at PI3Kγ and 10 to 100 nM on PI3Kα.
